Experimental data published in patent US11976083B2, “Inhibitors of peptidylarginine deiminases” (Gilead Sciences, Inc., priority 2020, dated 2024).

What follows are compounds tested against T1, human PAD4 (Homo sapiens, UniProt Q9UM07) (assay: In vitro PAD4 BAEE biochemical assay). Settings: BAEE substrate 3 mM, 5 nM PAD4, 2 mM calcium chloride; geometric mean of multiple experiments.
T1 construct: human PAD4 (NM_012387), A2-P663, was PCR amplified; His-SUMO (N, cleaved yes); made in house; host or cells: E. coli BL21(DE3)
Outline: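 Recombinant PAD4 (5 nM final) with 2 mM CaCl2 was preincubated with compound for 30 min at 25 °C in MOPS pH 7.6 buffer with DTT, then reacted with 3 mM BAEE for 2 h at 25 °C. Released ammonia was detected fluorimetrically with o-phthalaldehyde/DTT; IC50 from four-parameter fit, geometric mean of experiments.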

T1 sequence (Q9UM07 2-663): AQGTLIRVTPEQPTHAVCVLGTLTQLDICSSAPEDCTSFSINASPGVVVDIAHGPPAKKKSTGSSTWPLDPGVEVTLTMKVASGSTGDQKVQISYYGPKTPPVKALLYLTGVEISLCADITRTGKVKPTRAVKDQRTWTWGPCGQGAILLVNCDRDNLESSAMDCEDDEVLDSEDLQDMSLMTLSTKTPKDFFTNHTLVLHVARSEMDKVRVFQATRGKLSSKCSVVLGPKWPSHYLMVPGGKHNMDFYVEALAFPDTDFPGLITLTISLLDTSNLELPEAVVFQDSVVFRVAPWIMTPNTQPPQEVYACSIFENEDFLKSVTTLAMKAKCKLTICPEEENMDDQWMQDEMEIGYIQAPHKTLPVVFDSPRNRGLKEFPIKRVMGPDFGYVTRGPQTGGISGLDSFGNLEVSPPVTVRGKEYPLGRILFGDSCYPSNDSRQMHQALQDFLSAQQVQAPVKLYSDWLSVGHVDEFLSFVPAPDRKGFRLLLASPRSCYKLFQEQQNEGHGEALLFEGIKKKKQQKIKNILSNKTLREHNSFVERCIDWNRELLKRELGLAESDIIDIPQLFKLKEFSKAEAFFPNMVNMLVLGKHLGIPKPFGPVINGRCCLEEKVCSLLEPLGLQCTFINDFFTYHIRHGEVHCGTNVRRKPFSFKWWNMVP

| IC50 | SMILES |
| --- | --- |
| 22 nM | [2H]C1([2H])[C@H](N)[C@@H]2CC[C@@H](C2)N1C(=O)c1cc(F)c2c(c1)nc(-c1cc3ccc4nc3n1CCCCCc1nc(Cl)ccc1C(=O)N[C@@H]4C)n2C1CC1 [Example 764, (2~{R})-17-[5-[(1~{S},4~{R}, 5~{R})-4-amino-3,3-dideuterio-2-azabicyclo[3.2.1]octane-2-carbonyl]-1-cyclopropyl-7-fluoro-benzimidazol-2-yl]-8-chloro-2-methyl-3,9,16,22-tetrazatetracyclo[14.5.2.0^ {5,10).0^{19,23}]tricosa-1(22),5(10),6,8,17,19(23),20-heptaen-4-one] |
| 28 nM | C[C@H]1NC(=O)c2cc(Cl)ncc2CCCCCn2c(-c3nc4cc(C(=O)N5C[C@H](N)[C@@H]6CC[C@H]5C6)cc(F)c4n3C3CC3)cc3ccc1nc32 [Example 672, (2~{R})-17-[5-[(1~{S},4~ {R},5~{R})-4-amino-2-azabicyclo[3.2.1]octane-2-carbonyl]-1-cyclopropyl-7-fluoro-benzimidazol-2-yl]-7-chloro-2-methyl-3,8,16,22-tetrazatetracyclo [14.5.2.0^{5,10}.0^{19,23}] tricosa-1(22),5(10),6,8,17,19 (23),20-heptaen-4-one] |
| 48 nM | CO[C@@H]1CCN(C(=O)c2ccc3c(c2)nc(-c2cc4ccc5nc4n2CCCCCc2ccnc(C)c2C(=O)N[C@@H]5C)n3C2CC2)C[C@@H]1N [Example 696, (2~{R})-17-[5-[(3~{S}, 4~{R})-3-amino-4-methoxy-piperidine-1-carbonyl]-1-cyclopropyl-benzimidazol-2-yl]-2,6-dimethyl-3,7,16,22-tetrazatetracyclo [14.5.2.0^{5,10}.0^{19,23}] tricosa-1(22),5(10), 6,8,17,19(23),20-heptaen-4-one] |
| 204 nM | COc1cc(C(=O)N2[C@H]3CC[C@@H]2[C@H](N)C3)cc2nc(-c3cc4ccc5nc4n3CCCCCCOc3ncccc3-5)n(C)c12 [Example 83, [(1~{R},2~{R},4~{S})-2-amino-7-azabicyclo[2.2.1]heptan-7-yl]-[7-methoxy-1-methyl-2-(8-oxa-6,15,21-triazatetracyclo[13.5.2.0^{2,7}.0^{18,22}]docosa-1(21),2,4,6,16,18(22),19-heptaen-16-yl)benzimidazol-5-yl]methanone] |
| 106 nM | COc1cc(C(=O)N2CC[C@H]3CCCN[C@H]3C2)cc2nc(-c3cc4ccc5nc4n3CCCCCCC(C)(C)C(=O)N[C@@H]5C)n(C)c12 (single isomer, unassigned) [Example 261, (11˜{R})-17-[5-[(4˜{a}˜{R},8˜{a}˜{R})-2,3,4,4˜{a},5,6,8,8˜{a}-octahydro-1˜{H}-1,7-naphthyridine-7-carbonyl]-7-methoxy-1-methyl-benzimidazol-2-yl]-8,8,11-trimethyl-1,10,19-triazatricyclo[10.5.2.0^{15,18}]nonadeca-12(19),13,15(18),16-tetraen-9-one] |
| 28 nM | COc1cc(C(=O)N2C[C@H](N)[C@@H]3CC[C@H]2C3)cc2nc(-c3cc4ccc5nc4n3CCCCCC[C@@](C)(F)C(=O)N[C@@H]5C)n(C)c12 [Example 948, (8~{R},11~{R})-17-[5-[(1~{S},4~{R},5~{R})-4-amino-2-azabicyclo[3.2.1]octane-2-carbonyl]-7-methoxy-1-methyl-benzimidazol-2-yl]-8-fluoro-8,11-dimethyl-1,10,19-triazatricyclo[10.5.2.0^ {15,18}]nonadeca-12(19), 13,15(18),16-tetraen-9-one] |
| 45 nM | C[C@H]1NC(=O)c2ccc(Cl)nc2CCCCCn2c(-c3nc4cc(C(=O)N5C[C@H](N)[C@@H]6CC[C@H]5[C@H]6F)cc(F)c4n3C3CC3)cc3ccc1nc32 [Example 669, (2~{R})-17-[5-[(1~{S}, 4~{R},5~{S},8~{S})-4-amino-8-fluoro-2-azabicyclo[3.2.1]octane-2-carbonyl]-1-cyclopropyl-7-fluoro-benzimidazol-2-yl]-8-chloro-2-methyl-3,9,16,22-tetrazatetracyclo[14.5.2.0^ {5,10).0^{19,23}]tricosa-1(22),5(10),6,8,17,19(23),20-heptaen-4-one] |
| 22 nM | COc1cc(C(=O)N2[C@H]3CC[C@@H]2[C@H](N)C3)cc2nc(-c3cc4ccc5nc4n3CCCCCCN(C)C(=O)N[C@@H]5C)c(C)n12 [Example 212, (11~{R})-17-[7-[(1~{R},2~{R},4~{S})-2-amino-7-azabicyclo[2.2.1]heptane-7-carbonyl]-5-methoxy-3-methyl-imidazo[1,2-a]pyridin-2-yl]-8,11-dimethyl-1,8,10,19-tetrazatricyclo[10.5.2.0^{15,18}]nonadeca-12(19),13,15(18),16-tetraen-9-one] |
| 16 nM | COc1cc(C(=O)N2CCC[C@@H](N)[C@H]2C)cc2nc(-c3cc4ccc5nc4n3CC(F)(F)CCC[C@@H]3C[C@H]3C(=O)N[C@@H]5C)n(C)c12 [Example 852, (2~{R},5~{R},7~{R})-14-[5-[(2~{R},3~{R})-3-amino-2-methyl-piperidine-1-carbonyl]-7-methoxy-1-methyl-benzimidazol-2-yl]-11,11-difluoro-2-methyl-3,13,19-triazatetracyclo[11.5.2.0^ {5,7).0^{16,20}]icosa-1(19), 14,16(20),17-tetraen-4-one] |
| 21 nM | C[C@H]1NC(=O)[C@@H]2C[C@@]2(F)CCCCCn2c(-c3nc4cc(C(=O)N5C[C@H](N)[C@@H]6CC[C@H]5C6)cc(F)c4n3C3C[C@H]3F)cc3ccc1nc32 (stereo partly drawn) [Example 952, (2~{R},5~{S},7~{S})-14-[5-[(1~{S},4~{R},5~{R})-4-amino-2-azabicyclo[3.2.1]octane-2-carbonyl]-7-fluoro-1-[(1~{R},2~{R})-2-fluorocyclopropyl]benzimidazol-2-yl]-7-fluoro-2-methyl-3,13,19-triazatetracyclo [11.5.2.0^{5,7}.0^{16,20}] icosa-1(19),14,16(20),17-tetraen-4-one] |
| 45 nM | COc1cc(C(=O)N2CCC[C@@H](N)C2)cc2nc(-c3cc4ccc5cc4n3CCCCCCC(C)(C)C(=O)N[C@@H]5C)n(C)c12 [Example 148, (11~{R})-17-[5-[(3~{R})-3-aminopiperidine-1-carbonyl]-7-methoxy-1-methyl-benzimidazol-2-yl]-8,8,11-trimethyl-1,10-diazatricyclo [10.5.2.0^{15,18}]nonadeca-12(19),13,15(18),16-tetraen-9-one] |
| 122 nM | COc1ccnc2c1C(=O)N[C@H](C)c1ccc3cc(-c4nc5cc(C(=O)N6CC[C@@H](OC)[C@@H](N)C6)cc(OC)c5n4C)n(c3n1)CCCCC2 [Example 630, (2~{R})-17-[5-[(3~{S),4~ {R})-3-amino-4-methoxy-piperidine-1-carbonyl]-7-methoxy-1-methyl-benzimidazol-2-yl]-6-methoxy-2-methyl-3,9,16,22-tetrazatetracyclo[14.5.2.0^ {5,10}.0^{19,23}] tricosa-1(22),5(10), 6,8,17,19(23),20-heptaen-4-one] |
| 68 nM | COc1cccc2c1C(=O)N[C@H](C)c1ccc3cc(-c4nc5cc(C(=O)N6CC[C@@H](OC)[C@@H](N)C6)cc(OC)c5n4C)n(c3n1)CCCCC2 [Example 854, (2~{R})-17-[5-[(3~{S},4~{R})-3-amino-4-methoxy-piperidine-1-carbonyl]-7-methoxy-1-methyl-benzimidazol-2-yl]-6-methoxy-2-methyl-3,16,22-triazatetracyclo[14.5.2.0^ {5,10}.0^{19,23}]tricosa-1(22),5(10),6,8,17,19(23),20-heptaen-4-one] |
| 80 nM | COc1cc(C(=O)N[C@@H]2CCCCNC2)cc2nc(-c3cc4ccc5nc4n3CCCCCCC(C)(C)C(=O)N[C@@H]5C)n(C)c12 [Example 78, ~{N}-[(3~{R})-azepan-3-yl]-7-methoxy-1-methyl-2-[(11~{R})-8,8,11-trimethyl-9-oxo-1,10,19-triazatricyclo[10.5.2.0^{15,18}]nonadeca-12(19),13,15(18),16-tetraen-17-yl]benzimidazole-5-carboxamide] |
| 84 nM | COc1cc(C(=O)N2CCC[C@@H](N)C2)cc2nc(-c3cc4ccc5nc4n3CCCCCCC(=O)N[C@@H]5C)n(C3CC3)c12 [Example 231, (10~{R})-16-[5-[(3~{R})-3-aminopiperidine-1-carbonyl]-1-cyclopropyl-7-methoxy-benzimidazol-2-yl]-10-methyl-1,9,18-triazatricyclo[9.5.2.0^{14,17}]octadeca-11(18),12,14(17),15-tetraen-8-one] |
| 22 nM | CO[C@@H]1CCN(C(=O)c2cc(F)c3c(c2)nc(-c2cc4ccc5nc4n2CC(F)(F)CCC[C@]2(F)C[C@H]2C(=O)N[C@@H]5C)n3C2CC2)C[C@@H]1N [Example 700, (2~{R},5~{S},7~{S})-14-[5-[(3~{S},4~{R})-3-amino-4-methoxy-piperidine-1-carbonyl]-1-cyclopropyl-7-fluoro-benzimidazol-2-yl]-7,11,11-trifluoro-2-methyl-3,13,19-triazatetracyclo[11.5.2.0^ {5,7}.0^{16,20}]icosa-1(19),14,16(20),17-tetraen-4-one] |
| 31 nM | C[C@H]1NC(=O)[C@@H]2C[C@H]2CCCCCn2c(-c3nc4cc(C(=O)N[C@H]5CNCC[C@@H]5F)c(F)cc4n3C3CC3)cc3ccc1nc32 [Example 182, 1-cyclopropyl-6-fluoro-~{N}-[(3~{S},4~{S})-4-fluoro-3-piperidyl]-2-[(2~{R},5~{R},7~{R})-2-methyl-4-oxo-3,13,19-triazatetracyclo[11.5.2.0^{5,7}.0^{16,20}]icosa-1(19),14,16(20),17-tetraen-14-yl]benzimidazole-5-carboxamide] |
| 72 nM | COc1cc(C(=O)N2CCC[C@@H](N)C2)cc2nc(-c3cc4ccc5nc4n3CCCOC[C@H]3C[C@H]3C(=O)N[C@@H]5C)n(C)c12 [Example 308, (2~{R},5~{R},7~{S})-14-[5-[(3~{R})-3-aminopiperidine-1-carbonyl]-7-methoxy-1-methyl-benzimidazol-2-yl]-2-methyl-9-oxa-3,13,19-triazatetracyclo[11.5.2.0^{5,7}.0^{16,20}] icosa-1(19),14,16(20),17-tetraen-4-one] |
